Results published in patent US20120276545A1, “METHOD FOR USING DIVISION ARRESTED CELLS IN SCREENING ASSAYS” (LIFE TECHNOLOGIES CORPORATION, priority 2002, published 2012).

Columns and labels:
5HT2c = molecular target: T1, 5HT2c (Rattus norvegicus, UniProt P08909); test: Ca2+ mobilization by FACS (Indo-1) in NIH3T3-POP cells expressing 5HT2c; assay type: cell-based; conditions: Mesulergine (10 μM) pretreated division arrested cells, 10 μM 5HT
T1 sequence (P08909 33-460): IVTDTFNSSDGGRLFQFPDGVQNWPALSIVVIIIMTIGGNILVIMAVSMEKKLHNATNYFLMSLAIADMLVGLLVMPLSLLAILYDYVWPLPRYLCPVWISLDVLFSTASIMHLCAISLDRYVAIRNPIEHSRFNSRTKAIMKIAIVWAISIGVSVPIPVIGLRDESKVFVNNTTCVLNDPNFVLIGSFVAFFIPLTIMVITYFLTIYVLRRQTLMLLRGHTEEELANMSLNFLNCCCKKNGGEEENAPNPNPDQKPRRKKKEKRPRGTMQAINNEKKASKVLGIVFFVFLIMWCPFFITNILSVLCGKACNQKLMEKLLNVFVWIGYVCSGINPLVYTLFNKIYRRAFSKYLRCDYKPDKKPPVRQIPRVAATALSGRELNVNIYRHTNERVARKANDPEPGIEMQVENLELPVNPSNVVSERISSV
Description: (§1) In order to measure and to analyze Ca^2+ mobilization, a commercially available cell sorter was used. Excitation was set at 360 nm, and emissions were set at both 400 (+/−15 nm) and 500 (+/−20)nm. The emissions were monitored simultaneously, and the emission ratio at 400 nm/500 nm was used to report the intracellular rise of Ca^2+ concentration. Untreated cells were used to set a baseline ratio.

parental NIH3T3 cells = test: Ca2+ mobilization control in untransfected parental NIH3T3 cells; assay type: cell-based; conditions: parental NIH3T3 cells not transfected; data not shown
Description: as §1

| Structure (SMILES) | cells responding to serotonin in Ca++ mobilization (5HT2c) [%] | fluorescence change when treated with serotonin (parental NIH3T3 cells) |
| --- | --- | --- |
| CN1C[C@@H](NS(=O)(=O)N(C)C)C[C@@H]2c3cccc4c3c(cn4C)C[C@H]21 [Mesulergine] | 0.1 |  |
| NCCc1c[nH]c2ccc(O)cc12 [serotonin] |  | no fluorescence change |
